According to BindingDB's records for doi:10.1021/acschembio.6b01133 (Merck & Co. Inc, 2017):
Where “and” joins values, the source holds several entries; their conditions need not be identical. Identical values can stand only once.

How the values were obtained:
Experiment in all cases: RNAP-Inhibition Assay
Details in all cases: 37 °C
[1] = target: DNA-directed RNA polymerase subunit beta [D516V] (Escherichia coli, D516V)
Method: (§1) Fluorescence-detected RNAP inhibition assays in Tables 1 and 4 were performed using a DNA fragment containing the lacUV5 promoter as a template and the profluorescent ATP analog γ-[2′-(2-benzothiazoyl)-6′-hydroxybenzothiazole]-ATP(BBT-ATP, Jena Biosciences) as a substrate (methods as in ref 32). Fluorescence-detected RNAP inhibition assays in Figure 2C were performed essentially as described in refs 33 and 34. The assay used a proprietary circular single-stranded DNA as a template (Kool NC-45 Universal RNAP Template, Epicenter). […] A total of 5 μL of 20 nM recombinant RNAP in assay buffer [50 mM HEPES (pH = 8.0), 50 mM KCl, 4 mM MgCl2, 5% glycerol (v/v), 1 mM DTT, 0.1 mg mL−1 BSA, and 0.01% Triton X-100 (v/v)] was then added. After a 30 min incubation at RT, 5 μL of assay buffer solution containing 0.04 ng/μL DNA template and rNTPs (ATP, CTP, GTP, UTP; 600 μM each; Lucigen) was added to start the reaction. After incubation for 2 h at 37 °C, 70 μL of Quant-iT RiboGreen RNA Reagent [1:350 dilution in buffer containing 10 mM Tris-HCl (pH = 7.5) and 1 mM EDTA] was added to stop the reaction and develop the signal. The plate was read using a PheraStar Plus plate reader (BMG).

[2] = target: DNA-directed RNA polymerase subunit beta [S531L] (Escherichia coli, S531L)
Method: as §1

[3] = target: DNA-directed RNA polymerase subunit beta [H526D] (Escherichia coli, H526D)
Method: as §1

[4] = target: DNA-directed RNA polymerase subunit beta (Escherichia coli (strain K12), UniProt P0A8V2)
Chain of DNA-directed RNA polymerase subunit beta (P0A8V2 whole entry): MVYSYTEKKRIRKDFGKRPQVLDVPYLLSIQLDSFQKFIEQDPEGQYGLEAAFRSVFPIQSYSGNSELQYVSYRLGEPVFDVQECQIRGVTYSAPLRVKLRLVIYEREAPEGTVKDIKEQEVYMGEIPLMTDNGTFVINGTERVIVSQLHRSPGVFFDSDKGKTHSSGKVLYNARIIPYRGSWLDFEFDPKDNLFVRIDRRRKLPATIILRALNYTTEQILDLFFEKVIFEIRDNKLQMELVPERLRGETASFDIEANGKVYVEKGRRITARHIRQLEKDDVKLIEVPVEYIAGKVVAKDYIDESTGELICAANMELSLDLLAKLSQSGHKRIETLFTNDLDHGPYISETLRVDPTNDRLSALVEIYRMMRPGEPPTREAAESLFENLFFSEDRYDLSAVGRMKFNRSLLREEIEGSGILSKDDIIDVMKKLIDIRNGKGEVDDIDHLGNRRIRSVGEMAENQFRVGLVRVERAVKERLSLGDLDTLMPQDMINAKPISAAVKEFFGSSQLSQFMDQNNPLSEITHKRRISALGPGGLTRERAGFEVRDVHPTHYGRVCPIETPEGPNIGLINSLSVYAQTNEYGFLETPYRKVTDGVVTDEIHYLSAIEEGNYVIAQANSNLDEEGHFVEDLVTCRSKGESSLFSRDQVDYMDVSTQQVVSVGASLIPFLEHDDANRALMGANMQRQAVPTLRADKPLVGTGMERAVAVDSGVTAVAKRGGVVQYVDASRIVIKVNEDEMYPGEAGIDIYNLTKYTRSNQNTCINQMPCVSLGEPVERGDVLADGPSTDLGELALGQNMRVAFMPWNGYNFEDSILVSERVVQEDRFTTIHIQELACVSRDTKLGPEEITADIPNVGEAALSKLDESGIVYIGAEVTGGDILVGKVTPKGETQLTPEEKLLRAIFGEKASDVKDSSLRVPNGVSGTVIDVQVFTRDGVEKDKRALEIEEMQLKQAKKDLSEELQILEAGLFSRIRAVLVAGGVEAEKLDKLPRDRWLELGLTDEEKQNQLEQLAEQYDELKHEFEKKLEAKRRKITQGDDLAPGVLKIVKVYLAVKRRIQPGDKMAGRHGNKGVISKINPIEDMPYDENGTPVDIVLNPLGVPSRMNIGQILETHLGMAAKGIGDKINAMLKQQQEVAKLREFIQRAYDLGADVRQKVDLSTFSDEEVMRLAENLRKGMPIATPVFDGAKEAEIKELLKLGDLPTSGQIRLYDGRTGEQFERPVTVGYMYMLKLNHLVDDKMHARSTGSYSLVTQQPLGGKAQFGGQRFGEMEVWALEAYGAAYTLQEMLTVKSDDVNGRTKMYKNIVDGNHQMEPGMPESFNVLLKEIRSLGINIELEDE
Method: as §1

Row | Structure (SMILES) | IC50 [1] | IC50 [2] | IC50 [3] | IC50 [4]
1 | CO[C@H]1/C=C/O[C@@]2(C)Oc3c(C)c(O)c4c(O)c(cc(O)c4c3C2=O)NC(=O)/C(C)=C\C=C\[C@H](C)[C@H](O)[C@@H](C)[C@@H](O)[C@@H](C)[C@H](OC(C)=O)[C@@H]1C [CB-01-11] | 70 µM | 80 µM | > 100 µM | 0.03 µM and 0.02 µM
2 | CC(C)Cc1nnc2c(C(=O)NC3c4ccccc4-c4ccccc43)cccn12 [MRL-436] | 4 µM | 4 µM | 3 µM | 2 µM and 3 µM
